Assay results published in US10435361B2, “Kinase inhibitors” (Topivert Pharma Limited, priority 2013, dated 2019).
pIC50: −log10 of the molar value.

Experiments:
PBMCs [1] = assay: IL-2 and IFN gamma release in CD3/CD28 stimulated PBMC cells; type: cell-based; details: Homo sapiens, assay (c)
Protocol: PBMCs from healthy subjects are separated from whole blood using a density gradient (Lymphoprep, Axis-Shield Healthcare). Cells are added to a 96 well plate pre-coated with a mixture of CD3/CD28 monoclonal antibodies (0.3 μg/mL eBioscience and 3 μg/mL BD Pharmingen respectively). Compound at the desired concentration is then added to the wells and the plate left for 3 days under normal tissue culture conditions. […] The IC50 is determined from the dose response curve.

PBMCs [2] = assay: LPS-induced TNFα/IL-8 release in PBMC cells; type: cell-based; details: Homo sapiens, assay (b), read-out: IC50 Values for Inhibition of Cytokine Release PBMCs IL-8
Protocol: Peripheral blood mononuclear cells (PBMCs) from healthy subjects are separated from whole blood using a density gradient (Lymphoprep, Axis-Shield Healthcare). The PBMCs are seeded in 96 well plates and treated with compounds at the desired concentration for 2 hours before addition of 1 ng/mL LPS (Escherichia Coli 0111:B4 from Sigma Aldrich) for 24 hours under normal tissue culture conditions (37° C., 5% CO2). The supernatant is harvested for determination of IL-8 and TNFα concentrations by sandwich ELISA (Duo-set, R&D systems) and read on the fluorescence microplate reader (Varioskan® Flash, ThermoFisher Scientific).

[3] = read-out: IC50 Values for Inhibition of Cytokine Release PBMCs IL-2
[4] = read-out: IC50 Values for Inhibition of Cytokine Release PBMCs IFNγ

SMILES: COCCOCCOCCOc1cc(Nc2nccc(Oc3ccc(NC(=O)Nc4cc(C(C)(C)C)cc(NS(=O)(=O)N5CCOCC5)c4OC)c4ccccc34)n2)cc(OC)c1 [83(b), N-(5-(tert-butyl)-2-methoxy-3-(3-(4-((2-((3-methoxy-5-(2-(2-(2-methoxyethoxy)ethoxy)-ethoxy)phenyl)amino)pyrimidin-4-yl)oxy)naphthalen-1-yl)ureido)phenyl)morpholine-4-sulfonamide]
- pIC50 (PBMCs [1]; [3]): 6.96
- pIC50 (PBMCs [2]): 8.43

SMILES: C#Cc1cc(Nc2cc(Oc3ccc(NC(=O)Nc4cc(C(N)=O)cc(C(C)(C)C)c4)c4ccccc34)ccn2)cc(C(=O)NCCOCCOCCOC)c1 [Example 62, 3-((4-((4-(3-(3-(tert-Butyl)-5-carbamoylphenyl)ureido)naphthalen-1-yl)oxy)pyridin-2-yl)amino)-5-ethynyl-N-(2-(2-(2-methoxyethoxy)ethoxy)ethyl)benzamide]
- pIC50 (PBMCs [1]; [4]): 7.49
- pIC50 (PBMCs [1]; [3]): 7.31
- pIC50 (PBMCs [2]): 8.34

SMILES: C#Cc1cc(Nc2cc(Oc3ccc(NC(=O)Nc4cc(C(C)(C)C)cc(NS(C)(=O)=O)c4OC)c4ccccc34)ccn2)cc(C(=O)N[C@H](C)COCCOCCOC)c1 [Example 68, (R)-3-((4-((4-(3-(5-(tert-Butyl)-2-methoxy-3-(methylsulfonamido)phenyl)ureido)-naphthalen-1-yl)oxy)pyridin-2-yl)amino)-5-ethynyl-N-(1-(2-(2-methoxyethoxy)ethoxy)-propan-2-yl)benzamide]
- pIC50 (PBMCs [1]; [4]): 7.16
- pIC50 (PBMCs [1]; [3]): 6.66
- pIC50 (PBMCs [2]): 8.55

SMILES: CCOc1c(NC(=O)Nc2ccc(Oc3ccnc(Nc4cc(OC)cc(OCCOCCOCCOC)c4)n3)c3ccccc23)cc(C(C)(C)C)cc1NS(C)(=O)=O [Example 69, N-(5-(tert-butyl)-2-ethoxy-3-(3-(4-((2-((3-methoxy-5-(2-(2-(2-methoxyethoxy)ethoxy)-ethoxy)phenyl)amino)pyrimidin-4-yl)oxy)naphthalen-1-yl)ureido)phenyl)methane-sulfonamide]
- pIC50 (PBMCs [1]; [4]): 8.66
- pIC50 (PBMCs [2]): 8.80

SMILES: COCCOCCOCCOc1cc(Nc2cc(Oc3ccc(NC(=O)Nc4cc(C(C)(C)C)cc(C(=O)NC5COC5)c4OC)c4ccccc34)ccn2)cc(OC)c1 [Example 77, 5-(tert-Butyl)-2-methoxy-3-(3-(4-((2-((3-methoxy-5-(2-(2-(2-methoxyethoxy)ethoxy)ethoxy)-phenyl)amino)pyridin-4-yl)oxy)naphthalen-1-yl)ureido)-N-(oxetan-3-yl)benzamide]
- pIC50 (PBMCs [2]): 8.70

SMILES: COc1c(NC(=O)Nc2ccc(Oc3ccnc(Nc4ccccc4)n3)c3ccccc23)cc(C(C)(C)C)cc1C(=O)NC1COC1 [Example 78, 5-(tert-Butyl)-2-methoxy-N-(oxetan-3-yl)-3-(3-(4-((2-(phenylamino)pyrimidin-4-yl)oxy)-naphthalen-1-yl)ureido)benzamide]
- pIC50 (PBMCs [2]): 7.85

SMILES: COc1c(NC(=O)Nc2ccc(Oc3ccnc(Nc4ccccc4)c3)c(F)c2F)cc(C(C)(C)C)cc1C(=O)NC1COC1 [Example 82, 5-(tert-Butyl)-3-(3-(2,3-difluoro-4-((2-(phenylamino)pyridin-4-yl)oxy)phenyl)ureido)-2-methoxy-N-(oxetan-3-yl)benzamide]
- pIC50 (PBMCs [2]): 8.18
